Results taken from US9884063B2, “Amido-substituted azole compounds” (Bayer Pharma Aktiengesellschaft, priority 2014, dated 2018).
pIC50: −log10 of the molar value.

Target: T1, TNKS1 (Homo sapiens, UniProt O95271)
T1 sequence (O95271 1-1327): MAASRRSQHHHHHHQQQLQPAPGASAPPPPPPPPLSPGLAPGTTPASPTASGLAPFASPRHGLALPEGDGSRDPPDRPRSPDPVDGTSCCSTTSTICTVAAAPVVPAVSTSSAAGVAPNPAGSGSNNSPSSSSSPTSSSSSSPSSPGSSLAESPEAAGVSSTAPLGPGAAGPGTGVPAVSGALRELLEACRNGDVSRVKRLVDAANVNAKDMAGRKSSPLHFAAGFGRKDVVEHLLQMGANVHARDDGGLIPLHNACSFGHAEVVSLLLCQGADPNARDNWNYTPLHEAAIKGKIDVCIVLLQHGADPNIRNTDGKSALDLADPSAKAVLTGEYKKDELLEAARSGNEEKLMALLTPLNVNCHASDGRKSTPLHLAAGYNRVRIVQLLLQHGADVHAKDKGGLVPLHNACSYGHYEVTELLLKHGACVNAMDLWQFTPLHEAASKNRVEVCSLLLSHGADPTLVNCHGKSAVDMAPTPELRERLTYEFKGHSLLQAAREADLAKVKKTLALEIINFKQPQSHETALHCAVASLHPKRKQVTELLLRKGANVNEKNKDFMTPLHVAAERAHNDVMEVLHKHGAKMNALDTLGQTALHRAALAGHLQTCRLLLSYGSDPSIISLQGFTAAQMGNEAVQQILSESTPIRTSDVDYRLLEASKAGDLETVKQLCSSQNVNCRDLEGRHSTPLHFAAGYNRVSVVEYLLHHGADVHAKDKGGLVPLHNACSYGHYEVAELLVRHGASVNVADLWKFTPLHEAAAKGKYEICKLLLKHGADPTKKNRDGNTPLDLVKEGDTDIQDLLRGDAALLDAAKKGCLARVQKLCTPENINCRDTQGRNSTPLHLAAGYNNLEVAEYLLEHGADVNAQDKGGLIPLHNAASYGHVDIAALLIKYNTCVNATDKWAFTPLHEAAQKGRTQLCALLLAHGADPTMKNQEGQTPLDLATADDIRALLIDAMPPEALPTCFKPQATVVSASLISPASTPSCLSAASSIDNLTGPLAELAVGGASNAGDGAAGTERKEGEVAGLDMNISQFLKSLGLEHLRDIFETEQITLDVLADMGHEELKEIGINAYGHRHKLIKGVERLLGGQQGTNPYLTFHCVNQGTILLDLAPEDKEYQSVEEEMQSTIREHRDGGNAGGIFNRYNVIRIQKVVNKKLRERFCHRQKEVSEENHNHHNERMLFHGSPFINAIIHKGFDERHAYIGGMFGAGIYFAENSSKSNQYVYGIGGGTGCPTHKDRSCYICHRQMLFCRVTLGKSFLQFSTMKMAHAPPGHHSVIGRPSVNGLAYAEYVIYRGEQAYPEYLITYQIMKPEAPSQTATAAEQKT
Test: Modified TNKS1 Assay 3 (BPS kit #80573, biotin-NAD+, 96 well)
Type: biochemical
Settings: human TNKS1, BPS kit #80573, 96 well
Procedure, shortened: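 Chemiluminescent assay of TNKS1-catalysed ribosylation of a protein substrate with biotin-labelled NAD+, detected via streptavidin-HRP; run per kit protocol. Inhibition lowers the signal, and IC50 is the compound concentration halving the normalised readout.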

Row | Compound | pIC50
1 | O=C(Nc1ccc(NC(=O)c2[nH]cnc2C(=O)NC2CC2)cc1)c1cc(F)c(F)cc1Cl [Example 51, N^5-{4-[(2-chloro-4,5-difluorobenzoyl)amino]phenyl}-N^4-cyclopropyl-1H-imidazole-4,5-dicarboxamide] | 6.64
2 | O=C(Nc1ccc(NC(=O)c2[nH]cnc2C(=O)N2CC3(COC3)C2)cc1)c1cc(F)c(F)cc1Cl [Example 52, N-{4-[(2-chloro-4,5-difluorobenzoyl)amino]phenyl}-4-(2-oxa-6-azaspiro[3.3]hept-6-ylcarbonyl)-1H-imidazole-5-carboxamide] | < 6.30
3 | O=C(Nc1ccc(NC(=O)c2[nH]cnc2C(=O)NCCN2CCCCC2)cc1)c1ccc(F)cc1Cl [Example 32, N^4-{4-[(2-chloro-4-fluorobenzoyl)amino]phenyl}-N^5-[2-(piperidin-1-yl)ethyl]-1H-imidazole-4,5-dicarboxamide] | 8.10
4 | CS(=O)(=O)c1ccc(C(=O)Nc2ccc(NC(=O)c3[nH]cnc3C(=O)NCCN3CCCCC3)cc2)c(Cl)c1 [Example 53, N^5-(4-{[2-chloro-4-(methylsulfonyl)benzoyl]amino}phenyl)-N^4-[2-(piperidin-1-yl)ethyl]-1H-imidazole-4,5-dicarboxamide] | 8.70
5 | CN(C)CCNC(=O)c1nc[nH]c1C(=O)Nc1ccc(NC(=O)c2ccc(F)cc2Cl)cc1 [Example 22, N^4-{4-[(2-chloro-4-fluorobenzoyl)amino]phenyl}-N^5-[2-(dimethylamino)ethyl]-1H-imidazole-4,5-dicarboxamide] | 7.52

Next, values leading:

Row | pIC50 | Compound
6 | 7.52 | CNC(=O)c1nc[nH]c1C(=O)Nc1ccc(NC(=O)c2ccc(S(C)(=O)=O)cc2Cl)cc1 [Example 55, N^5-(4-{[2-chloro-4-(methylsulfonyl)benzoyl]amino}phenyl)-N^4-methyl-1H-imidazole-4,5-dicarboxamide]
7 | 7.70 | C[C@@H]1CCCCN1CCNC(=O)c1[nH]cnc1C(=O)Nc1ccc(NC(=O)c2ccc(F)cc2Cl)cc1 [Example 267, N^4-{4-[(2-chloro-4-fluorobenzoyl)amino]phenyl}-N^5-{2-[(2R)-2-methylpiperidin-1-yl]ethyl}-1H-imidazole-4,5-dicarboxamide]
8 | 6.85 | CNC(=O)c1nc[nH]c1C(=O)Nc1ccc(NC(=O)c2ccc(F)cc2I)cc1 [Example 61, N^5-{4-[(4-fluoro-2-iodobenzoyl)amino]phenyl}-N^4-methyl-1H-imidazole-4,5-dicarboxamide]
9 | 8.15 | CC(CN1CCOCC1)NC(=O)c1[nH]cnc1C(=O)Nc1ccc(NC(=O)c2ccc(F)cc2Cl)cc1 (single isomer, unassigned; enantiomer 2) [Example 270, N^4-{4-[(2-chloro-4-fluorobenzoyl)amino]phenyl}-N^5-[1-(morpholin-4-yl)propan-2-yl]-1H-imidazole-4,5-dicarboxamide (enantiomer 2)]
10 | 7.05 | CNC(=O)c1nc[nH]c1C(=O)Nc1ccc(NC(=O)c2ccc(F)cc2Br)cc1 [Example 56, N^5-{4-[(2-bromo-4-fluorobenzoyl)amino]phenyl}-N^4-methyl-1H-imidazole-4,5-dicarboxamide]
11 | 8.30 | Cc1nc(C(=O)Nc2ccc(NC(=O)c3ccc(F)cc3Cl)cc2)c(C(=O)NCCN2CCCCC2)[nH]1 [Example 67, N^4-{4-[(2-chloro-4-fluorobenzoyl)amino]phenyl}-2-methyl-N^5-[2-(piperidin-1-yl)ethyl]-1H-imidazole-4,5-dicarboxamide]
12 | > 9.30 | C[C@@H]1CCCN(CCNC(=O)c2[nH]cnc2C(=O)Nc2ccc(NC(=O)c3ccc(F)cc3Cl)cc2)C1 [Example 278, N^4-{4-[(2-chloro-4-fluorobenzoyl)amino]phenyl}-N^5-{2-[(3R)-3-methylpiperidin-1-yl]ethyl}-1H-imidazole-4,5-dicarboxamide]
